Legend:
[1] = tested on: Chenopodium album; experiment: Upland field foliage treatment (Test Example 1); format: in vivo; conditions: foliage treatment 14th day after sowing, wettable powder, 1 kg active ingredient per hectare, evaluated 21st day after application
Procedure, shortened: (§1)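 Foliage application took place two weeks after sowing, at an active-ingredient rate of 1 kg/ha from a water-diluted wettable powder. Rating followed on the 21st day after application, using an index scale on which crop values rise as injury increases.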

[2] = tested on: Digitaria adscendens; experiment: Upland field foliage treatment (Test Example 1); format: in vivo; conditions: foliage treatment 14th day after sowing, wettable powder, 1 kg active ingredient per hectare, evaluated 21st day after application
Procedure, shortened: as §1

[3] = tested on: Setaria viridis; experiment: Upland field foliage treatment (Test Example 1); format: in vivo; conditions: foliage treatment 14th day after sowing, wettable powder, 1 kg active ingredient per hectare, evaluated 21st day after application
Procedure, shortened: as §1

[4] = tested on: Stellaria media; experiment: Upland field foliage treatment (Test Example 1); format: in vivo; conditions: foliage treatment 14th day after sowing, wettable powder, 1 kg active ingredient per hectare, evaluated 21st day after application
Procedure, shortened: as §1

[5] = tested on: soybean (Glycine max); experiment: Upland field foliage treatment (Test Example 1), crop; format: in vivo; conditions: foliage treatment 14th day after sowing, 1 kg active ingredient per hectare, evaluated 21st day, lower index = higher safety
Procedure, shortened: as §1

[6] = tested on: wheat (Triticum aestivum); experiment: as above; format: in vivo; conditions: foliage treatment 14th day after sowing, 1 kg active ingredient per hectare, evaluated 21st day, lower index = higher safety
Procedure, shortened: as §1

[7] = tested on: Chenopodium album; experiment: Upland soil treatment (Test Example 2); format: in vivo; conditions: soil surface treatment next day after sowing, wettable powder, 1 kg active ingredient per hectare, evaluated 21st day after application
Procedure, shortened: (§2)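 Upland soil in pots was sown with weed and crop seeds, covered with about 1 cm soil, and next day sprayed on the surface with wettable-powder formulation at 1 kg active ingredient per hectare. Effects were scored by index on day 21; higher index means stronger weed control, lower index means better crop safety.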

[8] = tested on: Digitaria adscendens; experiment: Upland soil treatment (Test Example 2); format: in vivo; conditions: soil surface treatment next day after sowing, wettable powder, 1 kg active ingredient per hectare, evaluated 21st day after application
Procedure, shortened: as §2

[9] = tested on: Setaria viridis; experiment: Upland soil treatment (Test Example 2); format: in vivo; conditions: soil surface treatment next day after sowing, wettable powder, 1 kg active ingredient per hectare, evaluated 21st day after application
Procedure, shortened: as §2

[10] = tested on: Stellaria media; experiment: Upland soil treatment (Test Example 2); format: in vivo; conditions: soil surface treatment next day after sowing, wettable powder, 1 kg active ingredient per hectare, evaluated 21st day after application
Procedure, shortened: as §2

[11] = tested on: soybean (Glycine max); experiment: Upland soil treatment (Test Example 2), crop; format: in vivo; conditions: soil surface treatment next day after sowing, 1 kg active ingredient per hectare, evaluated 21st day, lower index = higher safety
Procedure, shortened: as §2

[12] = tested on: wheat (Triticum aestivum); experiment: Upland soil treatment (Test Example 2), crop; format: in vivo; conditions: soil surface treatment next day after sowing, 1 kg active ingredient per hectare, evaluated 21st day, lower index = higher safety
Procedure, shortened: as §2

[13] = tested on: Echinochloa spp.; experiment: Paddy field treatment (Test Example 3); format: in vivo, Echinochloa crusgalli; conditions: paddy pot, submerged 4 cm, dropped on water surface 10th day after transplantation, 1 kg active ingredient per hectare, evaluated 21st day
Procedure, shortened: (§3)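 Index scores for herbicidal effect were read 21 days after treatment, higher meaning stronger effect. Treatment was a water-diluted wettable powder dropped onto flooded paddy soil at 1 kg active ingredient per hectare, 10 days after rice transplantation.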

[14] = tested on: Ammannia multiflora; experiment: Paddy field treatment (Test Example 3); format: in vivo; conditions: paddy pot, submerged 4 cm, dropped on water surface 10th day after transplantation, 1 kg active ingredient per hectare, evaluated 21st day
Procedure, shortened: as §3

[15] = tested on: Monochoria vaginalis; experiment: Paddy field treatment (Test Example 3); format: in vivo; conditions: paddy pot, submerged 4 cm, dropped on water surface 10th day after transplantation, 1 kg active ingredient per hectare, evaluated 21st day
Procedure, shortened: as §3

[16] = tested on: Scirpus juncoides; experiment: Paddy field treatment (Test Example 3); format: in vivo; conditions: paddy pot, submerged 4 cm, dropped on water surface 10th day after transplantation, 1 kg active ingredient per hectare, evaluated 21st day
Procedure, shortened: as §3

[17] = tested on: rice (Oryza sative, variety: Koshihikari); experiment: Paddy field treatment (Test Example 3), crop; format: in vivo, Oryza sativa; conditions: transplanted rice two-leaf period, water surface treatment 10th day after transplantation, 1 kg active ingredient per hectare, evaluated 21st day, lower index = higher safety
Procedure, shortened: as §3

Row | SMILES | Herbicidal activity Chenopodium album [1] | Herbicidal activity Digitaria adscendens [2] | Herbicidal activity Setaria viridis [3] | Herbicidal activity Stellaria media [4] | Herbicidal activity Glycine max [5] | Herbicidal activity Triticum aestivum [6] | Herbicidal activity Chenopodium album [7] | Herbicidal activity Digitaria adscendens [8] | Herbicidal activity Setaria viridis [9] | Herbicidal activity Stellaria media [10] | Herbicidal activity Glycine max [11] | Herbicidal activity Triticum aestivum [12] | Herbicidal activity Echinochloa spp. [13] | Herbicidal activity Ammannia multiflora [14] | Herbicidal activity Monochoria vaginalis [15] | Herbicidal activity Scirpus juncoides [16] | Herbicidal activity Oryza sativa [17]
1 | COC=C(Cn1nc(-c2cccc(Cl)c2)c(C)c1C)C(=O)OC [Compound 34] | 5 (herbicidal effect of not less than 90% by weight) | 5 (herbicidal effect of not less than 90% by weight) | 4 (herbicidal effect of not less than 70% by weight and less than 90% by weight) | 4 (herbicidal effect of not less than 70% by weight and less than 90% by weight) | 1 (herbicidal effect of not less than 10% by weight and less than 30% by weight) | 1 (herbicidal effect of not less than 10% by weight and less than 30% by weight) | 4 (herbicidal effect of not less than 70% by weight and less than 90% by weight) | 4 (herbicidal effect of not less than 70% by weight and less than 90% by weight) | 4 (herbicidal effect of not less than 70% by weight and less than 90% by weight) | 4 (herbicidal effect of not less than 70% by weight and less than 90% by weight) | 0 (herbicidal effect of not less than 0% by weight and less than 10% by weight) | 0 (herbicidal effect of not less than 0% by weight and less than 10% by weight) | 3 (herbicidal effect of not less than 50% by weight and less than 70% by weight) | 3 (herbicidal effect of not less than 50% by weight and less than 70% by weight) | 5 (herbicidal effect of not less than 90% by weight) | 3 (herbicidal effect of not less than 50% by weight and less than 70% by weight) | 0 (herbicidal effect of not less than 0% by weight and less than 10% by weight)
2 | COC=C(Cn1nc(-c2cc(C)ccc2C)c(Br)c1C)C(=O)OC [Compound 28] | 5 (herbicidal effect of not less than 90% by weight) | 4 (herbicidal effect of not less than 70% by weight and less than 90% by weight) | 4 (herbicidal effect of not less than 70% by weight and less than 90% by weight) | 5 (herbicidal effect of not less than 90% by weight) | 0 (herbicidal effect of not less than 0% by weight and less than 10% by weight) | 0 (herbicidal effect of not less than 0% by weight and less than 10% by weight) | 4 (herbicidal effect of not less than 70% by weight and less than 90% by weight) | 4 (herbicidal effect of not less than 70% by weight and less than 90% by weight) | 4 (herbicidal effect of not less than 70% by weight and less than 90% by weight) | 4 (herbicidal effect of not less than 70% by weight and less than 90% by weight) | 0 (herbicidal effect of not less than 0% by weight and less than 10% by weight) | 0 (herbicidal effect of not less than 0% by weight and less than 10% by weight) | 5 (herbicidal effect of not less than 90% by weight) | 5 (herbicidal effect of not less than 90% by weight) | 5 (herbicidal effect of not less than 90% by weight) | 5 (herbicidal effect of not less than 90% by weight) | 1 (herbicidal effect of not less than 10% by weight and less than 30% by weight)
3 | COC=C(Cn1nc(-c2ccccc2)c(C)c1Br)C(=O)OC [Compound 46] | 5 (herbicidal effect of not less than 90% by weight) | 4 (herbicidal effect of not less than 70% by weight and less than 90% by weight) | 4 (herbicidal effect of not less than 70% by weight and less than 90% by weight) | 5 (herbicidal effect of not less than 90% by weight) | 1 (herbicidal effect of not less than 10% by weight and less than 30% by weight) | 0 (herbicidal effect of not less than 0% by weight and less than 10% by weight) | 4 (herbicidal effect of not less than 70% by weight and less than 90% by weight) | 4 (herbicidal effect of not less than 70% by weight and less than 90% by weight) | 4 (herbicidal effect of not less than 70% by weight and less than 90% by weight) | 4 (herbicidal effect of not less than 70% by weight and less than 90% by weight) | 0 (herbicidal effect of not less than 0% by weight and less than 10% by weight) | 0 (herbicidal effect of not less than 0% by weight and less than 10% by weight) | 3 (herbicidal effect of not less than 50% by weight and less than 70% by weight) | 3 (herbicidal effect of not less than 50% by weight and less than 70% by weight) | 3 (herbicidal effect of not less than 50% by weight and less than 70% by weight) | 3 (herbicidal effect of not less than 50% by weight and less than 70% by weight) | 0 (herbicidal effect of not less than 0% by weight and less than 10% by weight)
4 | COC=C(Cn1nc(-c2cccc(C)c2)cc1C)C(=O)OC [Compound 3] | 5 (herbicidal effect of not less than 90% by weight) | 4 (herbicidal effect of not less than 70% by weight and less than 90% by weight) | 5 (herbicidal effect of not less than 90% by weight) | 5 (herbicidal effect of not less than 90% by weight) | 0 (herbicidal effect of not less than 0% by weight and less than 10% by weight) | 0 (herbicidal effect of not less than 0% by weight and less than 10% by weight) | 4 (herbicidal effect of not less than 70% by weight and less than 90% by weight) | 4 (herbicidal effect of not less than 70% by weight and less than 90% by weight) | 4 (herbicidal effect of not less than 70% by weight and less than 90% by weight) | 4 (herbicidal effect of not less than 70% by weight and less than 90% by weight) | 0 (herbicidal effect of not less than 0% by weight and less than 10% by weight) | 0 (herbicidal effect of not less than 0% by weight and less than 10% by weight) | 3 (herbicidal effect of not less than 50% by weight and less than 70% by weight) | 4 (herbicidal effect of not less than 70% by weight and less than 90% by weight) | 4 (herbicidal effect of not less than 70% by weight and less than 90% by weight) | 3 (herbicidal effect of not less than 50% by weight and less than 70% by weight) | 0 (herbicidal effect of not less than 0% by weight and less than 10% by weight)

From patent US6809065B2, “Herbicide containing substituted pyrazole derivative as active ingredient” (SDS Biotech K.K., priority 2001, dated 2004)
